Patent US10028996B2, “Process for the synchronization of ovulation for timed breeding without heat detection” (priority 2003, dated 2018)

How the values were obtained:
Type in all cases: in vivo, swine
postpartum sows [1] = assay: Single timed deslorelin injection 96 hours post-weaning, single timed insemination without estrus detection; details: 50 mcg in SAIB 96 hours post-weaning, no estrus detection
Description: Approximately 170 postpartum sows were randomly divided into two equal groups comprised of controls and treated. Following weaning, the controls were detected for estrus and bred following the normal standard operating procedures for the farms on which they resided. The treated sows received a 50 mcg dose of deslorelin in SAIB at 96 hours post-weaning and were bred with a single insemination 28+/−2 hours later with no regard to estrus detection. The sows were examined for pregnancy by ultrasound at 21 days and slaughtered around 28 days post breeding. The entire reproductive tract was removed and corpora lutea and embryos were counted.

[2] = tested on: ovariectomized estrogen primed gilt model; assay: Dose response study of deslorelin in SAIB, LH release determined by RIA; details: single injection of 50 mcg in SAIB
Description: A dose response study was performed using deslorelin in SAIB in an ovariectomized estrogen primed gilt model (Barb, et al. (1999) Proceed. Int'l. Symp. Control. Rel. Bioact. Mater., 26).

postpartum sows [3] = assay: Litter size after deslorelin treatment in postpartum sows at three farm sites; details: Tables 3 to 5; regardless of estrus detection
Text: Postpartum sows were randomly distributed into three different groups comprised of Controls, Treatment 1, and Treatment 2, with the exception of Site 3, which was divided into two groups, Control and Treatment 2. Control sows were detected for estrus following weaning, and bred following the normal standard operating procedures for the farms on which they resided. Treatment 1 sows were detected for estrus following weaning, and received a 50 mcg dose of deslorelin in the morning when standing and were bred by AI 4 hours later and again at 24+/−2 hours later. Treatment 2 sows received a 50 mcg dose of deslorelin in SAIB at 96 or 120 hours post-weaning and were bred with a single insemination 28+/−2 hours later with no regard to estrus detection.

mature postpartum sows = assay: Deslorelin injected intravulvar at estrus detection in mature postpartum sows, AI breeding; details: 50 mcg intravulvar at estrus detection
Description: Sows were assigned randomly in blocks of two to either control or to be injected intravulvar with 50 mcg of deslorelin in SAIB at the time of estrus detection for sows first detected in estrus in the a.m. and 12 hours later for those first detected in estrus in the p.m. Treated animals were bred AI upon detected estrus and again 24 hours later if still in estrus. Controls received a saline injection on first detected estrus behavior estrus detection and were bred according to the farm's normal procedures.

CCNC(=O)[C@@H]1CCCN1C(=O)[C@H](CCCN=C(N)N)NC(=O)[C@H](CC(C)C)NC(=O)[C@@H](Cc1c[nH]c2ccccc12)NC(=O)[C@H](Cc1ccc(O)cc1)NC(=O)[C@H](CO)NC(=O)[C@H](Cc1c[nH]c2ccccc12)NC(=O)[C@H](Cc1cnc[nH]1)NC(=O)[C@@H]1CCC(=O)N1 [Deslorelin, deslorelin]
Pregnancy Rate (postpartum sows [1]): 71% | time at which LH returned to base level [2]: ≤ 18 h | LH peak relative to normal value ([2]; compared to Hansel et al. (1973)): about twice normal value | litter sizes, in words (postpartum sows [3]): normal litter sizes | difference in pregnancy rates, Control versus Treated (mature postpartum sows): no significant difference
